Paper PMC9150124, “Design of a Potent, Selective, and Brain-Penetrant Inhibitor of Wnt-Deactivating Enzyme Notum by Optimization of a Crystallographic Fragment Hit” (Journal of Medicinal Chemistry, 2022)

Key:
Test in all cases: SelectScreen kinase profiling, SSBK LanthaScreen Binding SP Technology
[1] = target: kinase named in conditions (Homo sapiens, UniProt Q02750); details: MAP2K1 (MEK1), 10 μM
[2] = target: kinase named in conditions (Homo sapiens, UniProt O00444); details: PLK4, 10 μM
[3] = target: kinase named in conditions (Homo sapiens, UniProt Q12866, A708S); details: MERTK (cMER) A708S, 10 μM
[4] = target: kinase named in conditions (Homo sapiens, UniProt P52564); details: MAP2K6 (MKK6), 10 μM
[5] = target: kinase named in conditions (Homo sapiens, UniProt Q9UIK4); details: DAPK2, 10 μM
[6] = target: kinase named in conditions (Homo sapiens, UniProt Q02779); details: MAP3K10 (MLK2), 10 μM
[7] = target: kinase named in conditions (Homo sapiens, UniProt P57059); details: SIK1, 10 μM
[8] = system: kinase named in conditions
[9] = target: kinase named in conditions (Homo sapiens, UniProt Q13131); details: 10 μM
Sequence of kinase named in conditions (Homo sapiens, UniProt Q13131) (Q13131 whole entry): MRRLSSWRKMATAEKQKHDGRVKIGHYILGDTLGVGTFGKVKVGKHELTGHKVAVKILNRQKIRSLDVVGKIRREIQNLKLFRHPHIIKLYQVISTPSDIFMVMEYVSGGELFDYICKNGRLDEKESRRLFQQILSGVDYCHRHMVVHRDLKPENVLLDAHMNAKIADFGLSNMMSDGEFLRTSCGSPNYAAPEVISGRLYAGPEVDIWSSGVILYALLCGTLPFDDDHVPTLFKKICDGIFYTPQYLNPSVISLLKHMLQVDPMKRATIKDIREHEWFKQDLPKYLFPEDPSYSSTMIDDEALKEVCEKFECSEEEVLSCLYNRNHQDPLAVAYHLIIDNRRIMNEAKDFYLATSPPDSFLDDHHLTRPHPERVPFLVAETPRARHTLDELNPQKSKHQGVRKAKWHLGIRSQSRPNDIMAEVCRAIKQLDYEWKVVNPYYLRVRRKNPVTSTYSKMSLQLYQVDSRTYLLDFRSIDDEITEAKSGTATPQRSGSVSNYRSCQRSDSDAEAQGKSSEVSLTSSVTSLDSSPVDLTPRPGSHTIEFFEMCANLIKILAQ

[10] = target: kinase named in conditions (Homo sapiens, UniProt Q13555); details: CAMK2G (CaMKII gamma), 10 μM
[11] = target: kinase named in conditions (Homo sapiens, UniProt Q86UE8); details: TLK2, 10 μM
[12] = target: kinase named in conditions (Homo sapiens, UniProt Q9HAZ1); details: CLK4, 10 μM
[13] = target: kinase named in conditions (Homo sapiens, UniProt Q16584); details: MAP3K11 (MLK3), 10 μM
[14] = target: kinase named in conditions (Homo sapiens, UniProt P10721, D820E); details: KIT D820E, 10 μM
[15] = target: kinase named in conditions (Homo sapiens, UniProt Q15375); details: EPHA7, 10 μM
[16] = target: kinase named in conditions (Homo sapiens, UniProt P10721, T670E); details: KIT T670E, 10 μM
[17] = target: kinase named in conditions (Homo sapiens, UniProt P54646); details: 10 μM
Sequence of kinase named in conditions (Homo sapiens, UniProt P54646) (P54646 whole entry): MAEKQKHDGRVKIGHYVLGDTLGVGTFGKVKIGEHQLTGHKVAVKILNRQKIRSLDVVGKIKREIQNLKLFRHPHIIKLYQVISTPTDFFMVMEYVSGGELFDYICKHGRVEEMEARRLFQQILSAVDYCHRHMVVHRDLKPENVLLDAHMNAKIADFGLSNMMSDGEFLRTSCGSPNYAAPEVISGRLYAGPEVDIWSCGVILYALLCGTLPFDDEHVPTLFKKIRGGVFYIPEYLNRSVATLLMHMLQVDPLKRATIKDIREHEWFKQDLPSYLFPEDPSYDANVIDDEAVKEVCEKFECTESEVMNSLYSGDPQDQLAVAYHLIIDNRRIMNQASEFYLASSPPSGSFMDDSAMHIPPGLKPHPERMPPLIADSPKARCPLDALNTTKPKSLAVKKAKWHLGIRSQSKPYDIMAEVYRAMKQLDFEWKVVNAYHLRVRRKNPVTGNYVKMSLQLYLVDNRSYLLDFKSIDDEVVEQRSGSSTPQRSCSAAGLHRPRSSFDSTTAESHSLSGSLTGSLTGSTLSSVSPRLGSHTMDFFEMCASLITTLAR

[18] = target: kinase named in conditions (Homo sapiens, UniProt P53779); details: MAPK10 (JNK3), 10 μM
[19] = target: kinase named in conditions (Homo sapiens, UniProt Q14004); details: read-out: % Inhibition mean
[20] = target: kinase named in conditions (Homo sapiens, UniProt Q16513); details: PKN2 (PRK2), 10 μM
Sequence of kinase named in conditions (Homo sapiens, UniProt Q16513) (Q16513 whole entry): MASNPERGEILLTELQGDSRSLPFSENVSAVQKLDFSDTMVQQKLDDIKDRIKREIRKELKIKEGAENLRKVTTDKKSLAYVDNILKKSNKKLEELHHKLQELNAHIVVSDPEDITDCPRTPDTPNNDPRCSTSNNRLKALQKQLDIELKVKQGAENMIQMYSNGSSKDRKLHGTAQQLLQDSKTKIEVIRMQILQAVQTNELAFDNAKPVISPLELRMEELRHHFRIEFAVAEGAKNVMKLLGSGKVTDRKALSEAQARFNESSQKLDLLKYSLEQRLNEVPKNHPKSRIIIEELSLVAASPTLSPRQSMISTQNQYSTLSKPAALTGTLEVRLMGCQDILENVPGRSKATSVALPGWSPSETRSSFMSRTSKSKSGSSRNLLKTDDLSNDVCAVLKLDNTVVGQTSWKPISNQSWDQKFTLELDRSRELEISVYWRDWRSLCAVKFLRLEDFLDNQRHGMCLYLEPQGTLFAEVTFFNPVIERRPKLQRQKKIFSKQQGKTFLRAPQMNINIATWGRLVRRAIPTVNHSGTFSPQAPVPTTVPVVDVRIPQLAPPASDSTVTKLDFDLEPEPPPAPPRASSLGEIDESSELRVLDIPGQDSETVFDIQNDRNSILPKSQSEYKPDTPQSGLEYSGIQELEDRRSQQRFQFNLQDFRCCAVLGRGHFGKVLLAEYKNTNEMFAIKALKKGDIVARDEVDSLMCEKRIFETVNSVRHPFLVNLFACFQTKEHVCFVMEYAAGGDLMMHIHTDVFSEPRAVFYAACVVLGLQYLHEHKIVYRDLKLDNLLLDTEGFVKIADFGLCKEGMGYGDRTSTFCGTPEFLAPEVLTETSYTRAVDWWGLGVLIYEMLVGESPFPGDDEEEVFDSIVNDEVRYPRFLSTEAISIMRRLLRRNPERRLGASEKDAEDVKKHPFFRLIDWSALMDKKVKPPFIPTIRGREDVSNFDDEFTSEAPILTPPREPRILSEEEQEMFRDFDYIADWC

[21] = target: kinase named in conditions (Homo sapiens, UniProt Q8IYT8); details: ULK2, 10 μM
[22] = target: kinase named in conditions (Homo sapiens, UniProt P22612); details: PRKACG (PRKAC gamma), 10 μM
[23] = target: kinase named in conditions (Homo sapiens, UniProt Q9HBH9); details: MKNK2 (MNK2), 10 μM
[24] = target: kinase named in conditions (Homo sapiens, UniProt P50750); details: 10 μM
Sequence of kinase named in conditions (Homo sapiens, UniProt P50750) (P50750 whole entry): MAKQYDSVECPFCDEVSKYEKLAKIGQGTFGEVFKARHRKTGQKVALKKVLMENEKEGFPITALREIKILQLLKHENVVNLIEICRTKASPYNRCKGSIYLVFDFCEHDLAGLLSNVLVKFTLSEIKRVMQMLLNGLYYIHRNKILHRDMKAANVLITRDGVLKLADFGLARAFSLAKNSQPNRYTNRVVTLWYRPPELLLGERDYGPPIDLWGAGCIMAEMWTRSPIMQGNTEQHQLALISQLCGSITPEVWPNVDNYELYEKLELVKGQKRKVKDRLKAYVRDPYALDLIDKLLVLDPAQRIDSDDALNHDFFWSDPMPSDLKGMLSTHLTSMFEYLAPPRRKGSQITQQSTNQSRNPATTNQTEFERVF

[25] = target: kinase named in conditions (Homo sapiens, UniProt P06241); details: FYN A, 10 μM
[26] = target: kinase named in conditions (Homo sapiens, UniProt Q76MJ5); details: ERN2, 10 μM
Sequence of kinase named in conditions (Homo sapiens, UniProt Q76MJ5) (Q76MJ5 35-926): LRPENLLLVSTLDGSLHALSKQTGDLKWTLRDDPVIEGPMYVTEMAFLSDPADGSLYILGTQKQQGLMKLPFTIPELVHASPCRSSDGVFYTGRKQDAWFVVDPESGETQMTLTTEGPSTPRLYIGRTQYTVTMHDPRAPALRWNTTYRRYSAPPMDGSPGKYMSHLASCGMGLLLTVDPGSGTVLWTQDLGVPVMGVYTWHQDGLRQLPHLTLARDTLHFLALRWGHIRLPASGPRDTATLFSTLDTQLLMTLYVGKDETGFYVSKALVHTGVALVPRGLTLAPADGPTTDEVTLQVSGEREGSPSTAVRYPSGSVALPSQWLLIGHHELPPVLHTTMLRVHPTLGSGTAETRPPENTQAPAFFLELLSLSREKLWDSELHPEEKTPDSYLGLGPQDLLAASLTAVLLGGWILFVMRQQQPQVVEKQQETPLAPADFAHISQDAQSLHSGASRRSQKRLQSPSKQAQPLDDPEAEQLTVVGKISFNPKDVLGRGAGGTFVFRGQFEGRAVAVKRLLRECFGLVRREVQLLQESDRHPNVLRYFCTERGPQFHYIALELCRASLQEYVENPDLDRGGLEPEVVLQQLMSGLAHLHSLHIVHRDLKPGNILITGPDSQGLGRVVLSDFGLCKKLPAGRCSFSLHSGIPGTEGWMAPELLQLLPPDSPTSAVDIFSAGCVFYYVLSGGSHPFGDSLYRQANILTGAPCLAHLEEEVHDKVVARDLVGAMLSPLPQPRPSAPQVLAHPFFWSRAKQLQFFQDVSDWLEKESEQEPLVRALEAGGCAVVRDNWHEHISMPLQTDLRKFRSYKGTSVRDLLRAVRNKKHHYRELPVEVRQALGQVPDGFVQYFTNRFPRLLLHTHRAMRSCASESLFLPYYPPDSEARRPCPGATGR

[27] = target: kinase named in conditions (Homo sapiens, UniProt P36507); details: MAP2K2 (MEK2), 10 μM
Sequence of kinase named in conditions (Homo sapiens, UniProt P36507) (P36507 whole entry): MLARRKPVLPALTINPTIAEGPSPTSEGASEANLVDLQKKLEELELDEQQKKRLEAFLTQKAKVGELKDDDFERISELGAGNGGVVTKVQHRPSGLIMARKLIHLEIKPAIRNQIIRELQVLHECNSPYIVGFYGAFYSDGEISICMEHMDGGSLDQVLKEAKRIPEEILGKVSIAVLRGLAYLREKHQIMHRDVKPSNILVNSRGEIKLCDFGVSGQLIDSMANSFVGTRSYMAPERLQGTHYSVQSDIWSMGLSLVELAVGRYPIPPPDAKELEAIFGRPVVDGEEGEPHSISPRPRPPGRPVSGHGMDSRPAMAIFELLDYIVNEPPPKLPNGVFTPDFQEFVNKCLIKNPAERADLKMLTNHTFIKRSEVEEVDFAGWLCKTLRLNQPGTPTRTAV

[28] = target: kinase named in conditions (Homo sapiens, UniProt Q9UM73, L1196M); details: ALK L1196M, 10 μM
[29] = target: kinase named in conditions (Homo sapiens, UniProt Q02763, Y1108F); details: TEK (TIE2) Y1108F, 10 μM
[30] = target: kinase named in conditions (Homo sapiens, UniProt Q9Y3S1); details: WNK2, 10 μM
[31] = target: kinase named in conditions (Homo sapiens, UniProt Q5TCX8); details: MLK4, 10 μM
[32] = target: kinase named in conditions (Homo sapiens, UniProt Q8WXR4); details: MYO3B (MYO3 beta), 10 μM
[33] = target: kinase named in conditions (Homo sapiens, UniProt Q86SG6); details: NEK8, 10 μM
Sequence of kinase named in conditions (Homo sapiens, UniProt Q86SG6) (Q86SG6 whole entry): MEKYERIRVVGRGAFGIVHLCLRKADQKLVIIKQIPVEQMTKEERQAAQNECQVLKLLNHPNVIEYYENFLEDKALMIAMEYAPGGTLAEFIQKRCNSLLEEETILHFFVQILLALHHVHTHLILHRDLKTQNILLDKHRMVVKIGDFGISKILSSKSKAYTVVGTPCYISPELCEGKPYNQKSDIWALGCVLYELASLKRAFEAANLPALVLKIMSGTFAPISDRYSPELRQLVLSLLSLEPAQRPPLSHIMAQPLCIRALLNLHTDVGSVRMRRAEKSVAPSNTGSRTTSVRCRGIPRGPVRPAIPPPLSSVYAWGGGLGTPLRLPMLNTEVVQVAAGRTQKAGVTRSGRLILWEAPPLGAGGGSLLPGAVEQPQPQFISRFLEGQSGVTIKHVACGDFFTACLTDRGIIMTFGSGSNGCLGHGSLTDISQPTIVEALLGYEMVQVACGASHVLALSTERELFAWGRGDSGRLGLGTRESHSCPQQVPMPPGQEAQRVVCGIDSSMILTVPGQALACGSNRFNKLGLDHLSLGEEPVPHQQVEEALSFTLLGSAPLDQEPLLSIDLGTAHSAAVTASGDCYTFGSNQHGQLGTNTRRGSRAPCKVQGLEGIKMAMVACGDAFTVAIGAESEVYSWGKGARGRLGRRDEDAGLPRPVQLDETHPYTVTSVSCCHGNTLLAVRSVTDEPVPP

Sequence of kinase named in conditions (Homo sapiens, UniProt Q02750) (Q02750 whole entry): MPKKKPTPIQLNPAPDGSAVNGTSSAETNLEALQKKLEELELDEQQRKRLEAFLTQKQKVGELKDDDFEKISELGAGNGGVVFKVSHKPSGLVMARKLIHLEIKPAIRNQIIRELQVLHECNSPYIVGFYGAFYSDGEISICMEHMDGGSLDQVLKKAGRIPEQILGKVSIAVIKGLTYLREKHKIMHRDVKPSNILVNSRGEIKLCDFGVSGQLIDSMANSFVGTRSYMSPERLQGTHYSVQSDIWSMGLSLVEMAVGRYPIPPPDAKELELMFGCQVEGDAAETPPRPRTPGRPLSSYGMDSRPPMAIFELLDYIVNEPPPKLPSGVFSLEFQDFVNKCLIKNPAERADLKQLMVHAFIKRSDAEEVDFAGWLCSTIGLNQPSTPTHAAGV

FC(F)(F)c1c(Cl)ccc(-n2ccnn2)c1Cl [8l, 1-(2,4-Dichloro-3-(trifluoromethyl)phenyl)-1H-1,2,3-triazole]
inhibition at 10 µM [1]: 26%
inhibition at 10 µM [2]: -1%
inhibition at 10 µM [3]: -3%
inhibition at 10 µM [4]: 2%
inhibition at 10 µM [5]: 23%
inhibition at 10 µM [6]: 1%
inhibition at 10 µM [7]: -3%
% Inhibition mean ([8]; ALK T1151_L1152insT, 10 μM): 3%
% Inhibition mean ([8]; EGFR (ErbB1) d746-750, 10 μM): 2%
% Inhibition mean ([8]; EGFR (ErbB1) d747-749 A750P, 10 μM): -6%
% Inhibition mean ([8]; FLT3 ITD, 10 μM): -15%
inhibition at 10 µM ([9]; AMPK (A1/B1/G2)): -13%
inhibition at 10 µM ([9]; AMPK (A1/B1/G3)): -4%
inhibition at 10 µM ([9]; AMPK (A1/B2/G1)): 6%
inhibition at 10 µM [10]: 1%
inhibition at 10 µM [11]: 11%
inhibition at 10 µM [12]: 3%
inhibition at 10 µM [13]: 3%
inhibition at 10 µM [14]: -4%
inhibition at 10 µM [15]: 0%
inhibition at 10 µM [16]: 1%
inhibition at 10 µM ([17]; AMPK (A2/B2/G1)): 12%
inhibition at 10 µM ([17]; AMPK (A2/B2/G2)): 24%
inhibition at 10 µM [18]: -1%
inhibition at 10 µM [19]: 38%
inhibition at 10 µM [20]: -4%
inhibition at 10 µM [21]: 8%
inhibition at 10 µM [22]: 6%
inhibition at 10 µM [23]: 3%
inhibition at 10 µM ([24]; CDK9 (Inactive)): -5%
inhibition at 10 µM ([24]; CDK9/cyclin K): -10%
inhibition at 10 µM [25]: -8%
inhibition at 10 µM [26]: 9%
inhibition at 10 µM [27]: 5%
inhibition at 10 µM [28]: -3%
inhibition at 10 µM [29]: -9%
inhibition at 10 µM [30]: 2%
inhibition at 10 µM [31]: 11%
inhibition at 10 µM [32]: 4%
inhibition at 10 µM [33]: 2%
